{"source": "patent US4607010A", "about": "“Analytical process and means for measuring protease inhibitor capacity of serum” (priority 1984, dated 1986)", "key": {"Chymotrypsin": {"system": "Chymotrypsin", "assay": "Fixed time active-site titration of chymotrypsin with DPCF (fluoride electrode)", "type": "biochemical", "conditions": "for % Active: active concentration as percentage of total mass; for F^-: pH 5.5, two hours, room temperature, mean of duplicates, blank 10.60", "method": "(§1) Diphenylcarbamyl fluoride is a specific inactivator for both α-chymotrypsin and trypsin. […] The fixed time pseudoequilibrium can nevertheless be used for the assay of both enzymes since the number of moles of F^- released is stoichiometrically related to the active concentration of either two enzymes.\nThe reagent solutions were the same as described in Example 1. The assay procedure was however modified in the following manner. Into the plastic beaker, 4.8 ml of assay buffer, […] of either enzyme solution and 100 μl of DPFC solution were added. A blank was prepared in a similar manner by substituting 100 μl of a 2 mM HCl for the enzyme solution. All solutions were left at room temperature for two hours. Following that the F^- concentration was then measured by the fluoride electrode. […].\nThe difference in the relative-rates of F^- generation with chymotrypsin solution and chymotrypsin solution with serum was used to estimate serum protease inhibitor capacity. The assay buffer and DPCF solution were prepared as described in Example 5. Chymotrypsin solution 2.0 μM corresponding to 1.46 μM active mass was prepared by dilution of stock chymotrypsin solution as described in Example 1."}, "Trypsin": {"system": "Trypsin", "assay": "Fixed time active-site titration of trypsin with DPCF (fluoride electrode)", "type": "biochemical", "conditions": "for % Active: active concentration as percentage of total mass; for F^-: pH 5.5, two hours, room temperature, mean of duplicates, blank 10.60", "method": "as §1\nThe reagent solutions were the same as described in Example 1. The assay procedure was however modified in the following manner. Into the plastic beaker, 4.8 ml of assay buffer, […] of either enzyme solution and 100 μl of DPFC solution were added. A blank was prepared in a similar manner by substituting 100 μl of a 2 mM HCl for the enzyme solution. All solutions were left at room temperature for two hours. Following that the F^- concentration was then measured by the fluoride electrode. […]"}, "[1]": {"conditions": "enzyme concentration 2 μM (mass)"}, "[2]": {"conditions": "enzyme concentration 5 μM (mass)"}, "[3]": {"conditions": "enzyme concentration 10 μM (mass)"}, "[4]": {"conditions": "mean over 2, 5 and 10 μM (mass)"}}, "data": [{"substance": "Chymotrypsin", "values": [{"measurement": "active concentration", "setting": "Chymotrypsin; chymotrypsin solution 2.0 μM (mass)", "value": 1.46, "unit": "µM"}, {"measurement": "% Active", "setting": "Chymotrypsin; [1]", "value": 80.0, "unit": "%"}, {"measurement": "F^-", "setting": "Chymotrypsin; [1]", "value": 12.20, "unit": "µM"}, {"measurement": "% Active", "setting": "Chymotrypsin; [2]", "value": 72.2, "unit": "%"}, {"measurement": "F^-", "setting": "Chymotrypsin; [2]", "value": 14.21, "unit": "µM"}, {"measurement": "% Active", "setting": "Chymotrypsin; [3]", "value": 70.4, "unit": "%"}, {"measurement": "F^-", "setting": "Chymotrypsin; [3]", "value": 17.64, "unit": "µM"}, {"measurement": "% Active Mean ± Stand. Dev.", "setting": "Chymotrypsin; [4]", "value": "74.2 ± 4.2", "unit": "%"}]}, {"substance": "Trypsin", "values": [{"measurement": "% Active", "setting": "Trypsin; [1]", "value": 77.5, "unit": "%"}, {"measurement": "F^-", "setting": "Trypsin; [1]", "value": 12.12, "unit": "µM"}, {"measurement": "% Active", "setting": "Trypsin; [2]", "value": 69.4, "unit": "%"}, {"measurement": "F^-", "setting": "Trypsin; [2]", "value": 14.00, "unit": "µM"}, {"measurement": "% Active", "setting": "Trypsin; [3]", "value": 65.7, "unit": "%"}, {"measurement": "F^-", "setting": "Trypsin; [3]", "value": 17.12, "unit": "µM"}, {"measurement": "% Active Mean ± Stand. Dev.", "setting": "Trypsin; [4]", "value": "70.9 ± 4.9", "unit": "%"}]}]}
